Where two headings read alike, the source gives them in different places.
Experiments:
parental HEK cells = experiment: HEK parental Agonist Counterscreen Assay (non-transfected cells); format: cell-based; details: for Averaged Max % Response (±St. Dev.): activity relative to known control
Description: The high control for the agonist counterscreen was Forskolin not acetylcholine.

GPR139 = molecular target: T1, GPR139 (Homo sapiens, UniProt Q6DWJ6); experiment: GPR139 Agonist titration / agonist counterscreen assay (calcium detection, HEK-GPR139 cells); format: cell-based; set-up: expressed in transfected cells; host or cells: HEK Aequorin cells, Maxcyte transient transfection; details: GPR139 Agonist Activity; for Averaged Max % Response (±St. Dev.): activity relative to known control; for EC50: read-out: EC50
T1 sequence (Q6DWJ6 1-353): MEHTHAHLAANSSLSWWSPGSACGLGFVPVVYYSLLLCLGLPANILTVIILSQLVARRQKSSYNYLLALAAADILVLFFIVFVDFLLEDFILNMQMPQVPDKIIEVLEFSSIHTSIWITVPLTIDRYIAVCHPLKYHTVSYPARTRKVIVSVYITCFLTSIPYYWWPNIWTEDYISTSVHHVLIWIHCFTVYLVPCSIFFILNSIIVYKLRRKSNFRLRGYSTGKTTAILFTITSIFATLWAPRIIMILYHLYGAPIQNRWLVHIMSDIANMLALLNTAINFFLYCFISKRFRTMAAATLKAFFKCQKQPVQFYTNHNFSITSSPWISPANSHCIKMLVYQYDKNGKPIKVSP
Protocol: GPR activity was assessed using a calcium detection assay. […] Negative control samples were treated with DMSO. […] Intracellular calcium was measured using Calcium 5.

[1] = Homo sapiens, HEK293, HEK Agonist Activity, parental non-transfected HEK cells
[2] = values printed in E-notation without unit
[3] = Homo sapiens, HEK293, HEK Agonist Activity section of Table 4 (parental HEK counterscreen)
[4] = HEK Agonist Activity section of Table 4 (parental HEK counterscreen)
[5] = HEK Agonist Activity, parental non-transfected HEK cells

Lipophilic Efficiency (logD) (parental HEK cells; HEK Agonist Activity) | Lipophilic Efficiency (logP) (parental HEK cells; HEK Agonist Activity) | Averaged Max % Response (±St. Dev.) (GPR139) [%] | Lipophilic Efficiency (logD) (GPR139; based on logD) | Lipophilic Efficiency (logP) (GPR139; based on logP) | Efficiency Ligand (GPR139; ligand efficiency) | EC50 (GPR139; [2]) [nM] | Hill Slope (GPR139; fitted dose-response curve) | Lipophilic Efficiency (logD) (parental HEK cells; HEK Agonist Activity section) | Lipophilic Efficiency (logP) (parental HEK cells; HEK Agonist Activity section) | Efficiency Ligand (GPR139) | Hill Slope (GPR139) | Lipophilic Efficiency (logD) (GPR139) | Lipophilic Efficiency (logP) (GPR139) | EC50 (GPR139; HEK-GPR139 cells) [nM] | Compound | Averaged Max % Response (±St. Dev.) (parental HEK cells; HEK Agonist Activity) [%] | Averaged Max % Response (±St. Dev.) (parental HEK cells; HEK Agonist Activity section) [%] | EC50 (parental HEK cells; [3]) [nM] | further results
0.98 | 0.95 | 114.68 ± 11.76 | 5.27 | 5.24 | 0.54 | < 0.517 | – | – | – | – | – | – | – | – | Cc1cccc(C(=O)NNC(=O)C(C)Oc2ccc(O)cc2O)c1 (stereo not shown) [SR-01000410744] | 17.10 ± 14.93 | – | – | EC50 (parental HEK cells; [1]): > 10200 nM
1.11 | 1.11 | 112.23 ± 25.44 | 4.43 | 4.43 | 0.50 | 6.2 | 0.32 | – | – | – | – | – | – | – | COc1ccc(CCNC(=O)COc2ccc(Cl)cc2Cl)cc1 [SR-01000412367] | 5.28 ± 6.57 | – | – | EC50 (parental HEK cells; [1]): > 13000 nM
– | – | 105.90 ± 33.97 | – | – | – | – | – | 0.38 | 0.38 | 0.38 | 0.88 | 2.10 | 2.10 | 313 | COc1ccc(NC(=O)NC(O)(O)c2cccc(C(C)=O)c2)cc1 [SR-01000428888] | – | −2.45 ± 12.32 | > 16400 | –
– | – | 109.12 ± 32.80 | – | – | – | – | – | 1.48 | 1.48 | 0.36 | 0.84 | 3.11 | 3.11 | 437 | CCN(Cc1ccccc1)C(=O)Cn1cnc2sc(O)c(C)c2c1=O [SR-01000468553] | – | 35.00 ± 2.11 | > 18500 | –
– | – | 101.79 ± 19.12 | – | – | – | – | – | 2.56 | 2.56 | 0.40 | 1.21 | 4.24 | 4.24 | 277 | O=C(CCOc1ccccc1)NCC1COc2ccccc2O1 (stereo not shown) [SR-01000479007] | – | 8.46 ± 4.77 | – | EC50 (parental HEK cells; [4]): > 13200 nM
– | – | 114.96 ± 19.78 | – | – | – | – | – | 0.89 | 0.89 | 0.28 | 0.89 | 1.82 | 1.82 | 1900 | Cc1ccc(NC(=O)CSC2=C(C#N)C(c3ccc(F)cc3)CC(=O)N2)c(C)c1 (stereo not shown) [SR-01000484494] | – | 14.09 ± 3.35 | – | EC50 (parental HEK cells; [4]): > 16000 nM
– | – | 109.30 ± 27.76 | – | – | – | – | – | 1.74 | 1.74 | 0.42 | 0.93 | 3.32 | 3.32 | 454 | Cc1cccc(C(=O)NNC(=O)CCc2ccccc2)c1 [SR-01000513008] | – | −5.44 ± 7.74 | > 17100 | –
– | – | 113.17 ± 28.03 | 3.08 | 2.96 | 0.39 | 235 | 0.85 | 1.26 | 1.13 | – | – | – | – | – | CC(Oc1ccc(Cl)cc1Cl)C(=O)NNC(=O)c1ccc(F)cc1 (stereo not shown) [SR-01000520452] | – | 1.29 ± 6.31 | > 15700 | –
1.31 | 1.19 | 113.77 ± 7.21 | 5.60 | 5.48 | 0.53 | > 0.703 | – | – | – | – | – | – | – | – | CC(Oc1ccc(O)cc1Cl)C(=O)NNC(=O)c1cccc(F)c1 (stereo not shown) [SR-01000520454] | 15.83 ± 2.96 | – | – | EC50 (parental HEK cells; [1]): > 13800 nM

More lines, now with the values behind:

Compound | Lipophilic Efficiency (logD) (parental HEK cells; HEK Agonist Activity) | Lipophilic Efficiency (logP) (parental HEK cells; HEK Agonist Activity) | Averaged Max % Response (±St. Dev.) (GPR139) [%] | Lipophilic Efficiency (logD) (GPR139; based on logD) | Lipophilic Efficiency (logP) (GPR139; based on logP) | Efficiency Ligand (GPR139; ligand efficiency) | EC50 (GPR139; [2]) [nM] | Hill Slope (GPR139; fitted dose-response curve) | Lipophilic Efficiency (logD) (parental HEK cells; HEK Agonist Activity section) | Lipophilic Efficiency (logP) (parental HEK cells; HEK Agonist Activity section) | Efficiency Ligand (GPR139) | Hill Slope (GPR139) | Lipophilic Efficiency (logD) (GPR139) | Lipophilic Efficiency (logP) (GPR139) | EC50 (GPR139; HEK-GPR139 cells) [nM] | Averaged Max % Response (±St. Dev.) (parental HEK cells; HEK Agonist Activity) [%] | Averaged Max % Response (±St. Dev.) (parental HEK cells; HEK Agonist Activity section) [%] | EC50 (parental HEK cells; [3]) [nM] | further results
O=C(CC1C(=O)N(c2ccccc2)C(=O)N1Cc1ccc2c(c1)OCO2)Nc1ccc(Cl)cc1 (stereo not shown) [SR-01000428566] | – | – | 84.07 ± 18.43 | – | – | – | – | – | 0.07 | 0.07 | 0.26 | 1.72 | 1.52 | 1.52 | 424 | – | 40.80 ± 6.00 | > 11900 | –
Cc1c(Cl)c(C(F)(F)F)nn1CC(=O)NCc1ccc(Cl)cc1 [SR-01000429212] | – | – | 80.96 ± 18.51 | – | – | – | – | – | 1.05 | 1.05 | 0.34 | 0.88 | 1.94 | 1.94 | 2300 | – | −31.95 ± 8.26 | > 18000 | –
CCn1c2ccccc2c2cc(C3C(C#N)=C(N)Oc4n[nH]c(C)c43)ccc21 (stereo not shown) [SR-01000465824] | – | – | 68.48 ± 7.96 | – | – | – | – | – | 1.72 | 1.67 | 0.27 | 1.13 | 2.21 | 2.16 | 3800 | – | −11.98 ± 3.62 | – | EC50 (parental HEK cells; [4]): > 11800 nM
Cc1ccccc1NC(=O)CSC1=C(C#N)C(c2ccccc2C(F)(F)F)C2=C(CCCC2=O)N1 (stereo not shown) [SR-01000484454] | – | – | 96.91 ± 19.53 | 1.98 | 1.98 | 0.28 | 85.3 | 0.52 | −0.16 | −0.16 | – | – | – | – | – | – | 27.15 ± 8.69 | – | EC50 (parental HEK cells; [4]): > 11900 nM
COc1cc(-c2nnc(COc3ccc(Cl)cc3C)o2)cc(OC)c1OC [SR-01000504687] | 1.65 | 1.65 | 92.66 ± 5.93 | 4.45 | 4.45 | 0.40 | 19.4 | 0.62 | – | – | – | – | – | – | – | −3.10 ± 6.59 | – | – | EC50 (parental HEK cells; [5]): > 12200 nM
Cn1cnnc1SCc1ccc(F)c2ccccc12 [SR-01000524029] | 1.61 | 1.61 | 98.34 ± 6.18 | 4.61 | 4.61 | 0.57 | 16.2 | 0.92 | – | – | – | – | – | – | – | 9.45 ± 2.06 | – | – | EC50 (parental HEK cells; [5]): > 16000 nM

Source: patent US20250099420A1, “SMALL MOLECULE MODULATORS OF GPR139 COMPLEX” (University of Florida Research Foundation, Incorporated, priority 2022, published 2025)
